Assay results published in US10798943B2, “Use of 6-anilino purine derivatives to improve heat stress tolerance of rice seedlings” (SYNGENTA PARTICIPATIONS AG, priority 2016, dated 2020).

Key:
Assay type in all cases: in vivo
[1] = system: rice seedlings (hybrid rice variety ADT45) under heat stress; test: Transplant shock stress, visual assessment of damage severity, Kumbakonam trial; conditions: for Transplanting shock stress (8th day) / Transplanting shock stress (12th day) / Transplanting shock stress (4th day): Kumbakonam
Text: (§1) Trials were setup in two locations in India to test the effect of compounds of formula I on tolerance of rice seedlings to heat stress during transplantation.
(§2) For each trial, hybrid rice variety ADT45 was sown in seedling boxes. A compound of formula (Ia) was applied by foliar spray in the form of an EC formulation, at various dose rates and seedling growth stages as shown in Table 1.
(§3) Transplanting took place at the […] growth stage. Transplant shock was used as an indicator of tolerance to heat stress, and was measured via visual assessment of damage severity on a scale of 0% (no damage) to 100% (dead plant); observations such as yellowing and leaf tip burning are indicators of damage. Transplant shock was also assessed by measuring NVDI values using a Green Seeker™ crop sensor, which measures the percentage green area. A low transplant shock stress rating and high NVDI rating indicate improved tolerance to transplant shock stress.
(§4) The trial was carried out between 7 May 2015 and 15 Jun. 2015, with transplanting on 29 May 2015. The mean maximum daily temperature during the trial period was 37.3° C., and mean minimum daily temperature during the trial period was 24.9° C. The mean temperature during the entire trial period was 31.1° C.

[2] = system: rice seedlings (hybrid rice variety ADT45) under heat stress; test: NVDI by Green Seeker crop sensor, Kumbakonam trial; parameters: key: NVDI as percentage green area (Green Seeker)
Text: as §1, §2, §3, §4

[3] = system: rice seedlings (hybrid rice variety ADT45); test: Phytotoxicity assessments at Kumbakonam trial; conditions: for Greenness at 3.2 leaf / Seedling height at 3.2 leaf / Seedling injury / Time to 3.2 leaf / Uniformity of foliage growth at 3.2 leaf / Uniformity of greening at 3.2 leaf / Whiteness of root mat at 3.2 leaf: Kumbakonam
Experimental: For each trial, hybrid rice variety ADT45 was sown in seedling boxes. A compound of formula (Ia) was applied by foliar spray in the form of an EC formulation, at various dose rates and seedling growth stages as shown in Table 1. [table] […] The trial was carried out between 7 May 2015 and 15 Jun. 2015, with transplanting on 29 May 2015. The mean maximum daily temperature during the trial period was 37.3° C., and mean minimum daily temperature during the trial period was 24.9° C. The mean temperature during the entire trial period was 31.1° C.

[4] = treatment 2: 5 g ai/ha, Pigeon-breast
[5] = treatment 3: 10 g ai/ha, Pigeon-breast
[6] = treatment 4: 20 g ai/ha, Pigeon-breast
[7] = treatment 6: 10 g ai/ha, 2-leaf
[8] = treatment 7: 20 g ai/ha, 2-leaf
[9] = treatment 9: 10 g ai/ha, 3-leaf
[10] = treatment 10: 20 g ai/ha, 3-leaf

COc1cccc(Nc2nc(F)nc3[nH]cnc23)c1 [Formula Ia]
Tolerance to heat stress / transplant shock stress, comparison of treatments ([1]; Kumbakonam trial, treatments 5 and 6 (2-leaf growth stage, 5-10 g ai/ha)): giving the best results
Transplanting shock stress (8th day) [1, 4]: 35%
Transplanting shock stress (12th day) [1, 4]: 15%
Transplanting shock stress (4th day) ([1]; treatment 2: 5 g ai/ha, Pigeon-breast, scale 0% no damage to 100% dead plant): 32%
Transplanting shock stress (4th day) [1, 5]: 38%
Transplanting shock stress (8th day) [1, 5]: 32%
Transplanting shock stress (12th day) [1, 5]: 17%
Transplanting shock stress (4th day) [1, 6]: 30%
Transplanting shock stress (8th day) [1, 6]: 22%
Transplanting shock stress (12th day) [1, 6]: 13%
Transplanting shock stress (4th day) ([1]; treatment 5: 5 g ai/ha, 2-leaf): 15%
Transplanting shock stress (8th day) ([1]; treatment 5: 5 g ai/ha, 2-leaf): 13%
Transplanting shock stress (12th day) ([1]; treatment 5: 5 g ai/ha, 2-leaf): 7%
Transplanting shock stress (4th day) [1, 7]: 30%
Transplanting shock stress (8th day) [1, 7]: 22%
Transplanting shock stress (12th day) [1, 7]: 10%
Transplanting shock stress (4th day) [1, 8]: 35%
Transplanting shock stress (8th day) [1, 8]: 37%
Transplanting shock stress (12th day) [1, 8]: 22%
Transplanting shock stress (4th day) ([1]; treatment 8: 5 g ai/ha, 3-leaf): 27%
Transplanting shock stress (8th day) ([1]; treatment 8: 5 g ai/ha, 3-leaf): 32%
Transplanting shock stress (12th day) ([1]; treatment 8: 5 g ai/ha, 3-leaf): 17%
Transplanting shock stress (4th day) [1, 9]: 42%
Transplanting shock stress (8th day) [1, 9]: 27%
Transplanting shock stress (12th day) [1, 9]: 15%
Transplanting shock stress (4th day) [1, 10]: 45%
Transplanting shock stress (8th day) [1, 10]: 37%
Transplanting shock stress (12th day) [1, 10]: 25%
NVDI data (10 DAT) [2, 4]: 12
NVDI data (15 DAT) [2, 4]: 19
NVDI data (10 DAT) [2, 5]: 6
NVDI data (15 DAT) [2, 5]: 19
NVDI data (10 DAT) [2, 6]: 10
NVDI data (15 DAT) [2, 6]: 20
NVDI data (10 DAT) ([2]; treatment 5: 5 g ai/ha, 2-leaf): 13
NVDI data (15 DAT) ([2]; treatment 5: 5 g ai/ha, 2-leaf): 22
NVDI data (10 DAT) [2, 7]: 12
NVDI data (15 DAT) [2, 7]: 20
NVDI data (10 DAT) [2, 8]: 11
NVDI data (15 DAT) [2, 8]: 19
NVDI data (10 DAT) ([2]; treatment 8: 5 g ai/ha, 3-leaf): 10
NVDI data (15 DAT) ([2]; treatment 8: 5 g ai/ha, 3-leaf): 19
NVDI data (10 DAT) [2, 9]: 15
NVDI data (15 DAT) [2, 9]: 18
NVDI data (10 DAT) [2, 10]: 15
NVDI data (15 DAT) [2, 10]: 20
Phytotoxic effects to the rice seedlings (summary) ([3]; Kumbakonam trial, some marginal effects at the highest dose rate): did not cause any phytotoxic effects
Greenness at 3.2 leaf [3, 4]: 3 unit
Seedling height at 3.2 leaf [3, 4]: 14 cm
Seedling injury [3, 4]: 0%
Time to 3.2 leaf [3, 4]: 14 days
Uniformity of foliage growth at 3.2 leaf [3, 4]: 90%
Uniformity of greening at 3.2 leaf [3, 4]: 95%
Whiteness of root mat at 3.2 leaf [3, 4]: 90%
Greenness at 3.2 leaf [3, 5]: 3 unit
Seedling height at 3.2 leaf [3, 5]: 13 cm
Seedling injury [3, 5]: 0%
Time to 3.2 leaf [3, 5]: 14 days
Uniformity of foliage growth at 3.2 leaf [3, 5]: 90%
Uniformity of greening at 3.2 leaf [3, 5]: 95%
Whiteness of root mat at 3.2 leaf [3, 5]: 90%
Greenness at 3.2 leaf [3, 6]: 3 unit
Seedling height at 3.2 leaf [3, 6]: 13 cm
Seedling injury [3, 6]: 0%
Time to 3.2 leaf [3, 6]: 14 days
Uniformity of foliage growth at 3.2 leaf [3, 6]: 90%
Uniformity of greening at 3.2 leaf [3, 6]: 95%
Whiteness of root mat at 3.2 leaf [3, 6]: 90%
Greenness at 3.2 leaf ([3]; treatment 5: 5 g ai/ha, 2-leaf): 3 unit
Seedling height at 3.2 leaf ([3]; treatment 5: 5 g ai/ha, 2-leaf): 14 cm
Seedling injury ([3]; treatment 5: 5 g ai/ha, 2-leaf): 0%
Time to 3.2 leaf ([3]; treatment 5: 5 g ai/ha, 2-leaf): 13 days
Uniformity of foliage growth at 3.2 leaf ([3]; treatment 5: 5 g ai/ha, 2-leaf): 95%
Uniformity of greening at 3.2 leaf ([3]; treatment 5: 5 g ai/ha, 2-leaf): 95%
Whiteness of root mat at 3.2 leaf ([3]; treatment 5: 5 g ai/ha, 2-leaf): 85%
Greenness at 3.2 leaf [3, 7]: 2.8 unit
Seedling height at 3.2 leaf [3, 7]: 14 cm
Seedling injury [3, 7]: 3%
Time to 3.2 leaf [3, 7]: 13 days
Uniformity of foliage growth at 3.2 leaf [3, 7]: 90%
Uniformity of greening at 3.2 leaf [3, 7]: 90%
Whiteness of root mat at 3.2 leaf [3, 7]: 85%
Greenness at 3.2 leaf [3, 8]: 2.5 unit
Seedling height at 3.2 leaf [3, 8]: 14 cm
Seedling injury [3, 8]: 8%
Time to 3.2 leaf [3, 8]: 13 days
Uniformity of foliage growth at 3.2 leaf [3, 8]: 90%
Uniformity of greening at 3.2 leaf [3, 8]: 85%
Whiteness of root mat at 3.2 leaf [3, 8]: 85%
Greenness at 3.2 leaf ([3]; treatment 8: 5 g ai/ha, 3-leaf): 3 unit
Seedling height at 3.2 leaf ([3]; treatment 8: 5 g ai/ha, 3-leaf): 14 cm
Seedling injury ([3]; treatment 8: 5 g ai/ha, 3-leaf): 0%
Time to 3.2 leaf ([3]; treatment 8: 5 g ai/ha, 3-leaf): 13 days
Uniformity of foliage growth at 3.2 leaf ([3]; treatment 8: 5 g ai/ha, 3-leaf): 90%
Uniformity of greening at 3.2 leaf ([3]; treatment 8: 5 g ai/ha, 3-leaf): 95%
Whiteness of root mat at 3.2 leaf ([3]; treatment 8: 5 g ai/ha, 3-leaf): 90%
Greenness at 3.2 leaf [3, 9]: 3 unit
Seedling height at 3.2 leaf [3, 9]: 14 cm
Seedling injury [3, 9]: 0%
Time to 3.2 leaf [3, 9]: 13 days
Uniformity of foliage growth at 3.2 leaf [3, 9]: 90%
Uniformity of greening at 3.2 leaf [3, 9]: 95%
Whiteness of root mat at 3.2 leaf [3, 9]: 90%
Greenness at 3.2 leaf [3, 10]: 2.5 unit
Seedling height at 3.2 leaf [3, 10]: 14 cm
Seedling injury [3, 10]: 15%
Time to 3.2 leaf [3, 10]: 13 days
Uniformity of foliage growth at 3.2 leaf [3, 10]: 90%
Uniformity of greening at 3.2 leaf [3, 10]: 85%
Whiteness of root mat at 3.2 leaf [3, 10]: 85%
